Assay results taken from patent publication EP2345639A1, “Cyclic hydroxylamine derivatives, their preparation and use as antioxidants” (ABIOGEN PHARMA S.p.A., priority 2009, dated 2011).
One block for each compound: values may come before it.

What was measured:
[1] = system: C6 cells (rat glioma) and BAEC cells (bovine aortic endothelial); test: In vitro inhibition of CHP-induced oxidative stress (DCF fluorescence); assay type: cell-based; conditions: 500 µM CHP, 4, 20, 100 and 500 µM compound, 30 minutes; depending on the concentrations and cell line
Protocol: The method used was essentially the one reported by Rüweler M. et al. ("Inhibition of peroxide-induced radical generation by plant polyphenols in C6 astroglioma cells" (2008) Toxicol in vitro 22, 1377-81), with a few minor modifications.
The cells were seeded in phenol-red free DMEM (Sigma Aldrich) into 96-well plates with 5% FBS and 20 mM HEPES at a density of 40,000 cells/well. After 48 hours, the medium was substituted by HBSS (Hanks' Balanced Salt Solution, Sigma) containing 10 µM of dihydro-2',7'-dichlorofluorescein diacetate (H2DCF-DA, Sigma Aldrich) and incubated in darkness for 30 minutes at 37 °C, in order to load the cells with fluorescent dye. H2DCF-DA was hydrolyzed enzymatically by the intracellular esterases to form non-fluorescent H2DCF, which was then rapidly oxidized to form 2',7'-dichlorofluorescein (DCF) being highly fluorescent in the presence of reactive species (RS). The intensity of DCF fluorescence is directly proportional to the amount of RS formed.
After carrying out two washes, the cells were exposed to 500 µM of CHP and various concentrations (4, 20, 100 and 500 µM) of the compounds of the invention for 30 minutes at 37 °C. Fluorescence was then measured, after cell washing, by a microplate reader at an excitation wavelength of 485 nm and an emission wavelength of 535 nm.
Six wells per plate per concentration of test composition (compound + CHP) and per control (HBSS without CHP) were measured and 12 wells were used as reference for CHP-induced stress. In addition, each 96-well plate contained 6 wells that received the highest concentration of the tested compounds without CHP, to investigate whether the compounds of the invention alone were able to induce cellular radical formation.
When using this assay, it should be borne in mind that DCF fluorescence is a generalized indicator of oxidative stress rather than of any particular reactive species, i.e. it is not a direct assay for H2O2 or other reactive species (Halliwell B, Whiteman M. (2004) "Measuring reactive species and oxidative damage in vivo and in cell culture: how should you do it and what do the results mean?" Br. J. Pharmacol. 142 231-255). Therefore, when an increase in DCF fluorescence induced by exposure of cells to CHP was measured, as was carried out in these assays, it was not possible to deduce which reactive species was responsible. Inhibition of CHP-induced fluorescence was evaluated by means of different concentrations of the compounds of the invention and comparative compounds such as Trolox and edaravone.

[2] = TEAC method (Trolox Equivalent Antioxidant Capacity Assay); assay type: biochemical; conditions: ratio of gradient to gradient of Trolox; 650 nm, 37 °C, about 90 minutes
Source text: This assay is used to measure the total antioxidant activity of pure substances, biological fluids and plant compounds and is based on the reaction of antioxidants with the cation radical ABTS·^+ (2,2'-azinobis(3-ethylbenzothiazolin-6-sulphonate)). This cation radical is metastable and has to be generated just before the experiment by reacting ABTS with hydrogen peroxide in the presence of HRP. This radical can be reduced, with consequent loss of absorbance, by an antioxidant whose scavenging capacity can be measured spectrophotometrically at 650 nm. The test is carried out at 37 °C and the results are obtained from a comparison with Trolox (a synthetic antioxidant and hydrophilic analogue of vitamin E).
The ABTS solution S1 was prepared as follows: • 20 mg of ABTS were added to 50 mM of citric acid buffer (40 ml) at pH=4.5 and to the resulting solution there was added an aqueous solution of HRP (4.4 mg, 400 µl) and an aqueous solution of H2O2 (10 µl of a 30% solution diluted with 16.3 ml of water).
For each of the compounds (1)-(11), as synthesized above, there was prepared a 600 µM solution in water, methanol or DMSO according to its solubility, as well as a Trolox solution as reference.
Each solution was diluted to produce 6 solutions each at a concentration between 25 µM and 300 µM. From each of the diluted and divided solutions, there were withdrawn 20 µl to which 200 µl of solution S1 were then added.
The decrease in absorbance of each solution thus obtained was monitored at 650 nm until a stable value was reached (about 90 minutes).
For each set of 6 solutions and for the reference trolox solution, the absorption was given in graph form as a function of the amount of compound (nmol) in the solution. The gradient of the straight line obtained by linear interpolation was determined according to the least squares method. The TEAC value of each compound of the invention is given in the table below and is expressed as the ratio between the gradient of the resulting straight line and the gradient of the reference (trolox) straight line.

[3] = system: doxorubicin-induced cerebral oxidative stress in mice; test: In vivo assay of cerebral oxidative stress induced in mice by doxorubicin (model and oxidized animals); conditions: % incidence of D relative to V
Protocol: The assay was carried out on compounds (1)-(5) and (7)-(11) and on edaravone (E) as comparative compound.
(§1) 10 mice were used for each treatment group. For each compound 50 mg/kg were administered intraperitoneally (IP) for three consecutive days (day 0, 1 and 2); half the animals (5) also received IP 16.7 mg/kg of doxorubicin immediately after the first treatment (day 0). On the day after the last administration (day 3) the animals were killed by neck dislocation and the brains were removed, weighed and frozen in liquid nitrogen.
(§2) For the analyses of oxidative stress, 100 mg/ml of brain homogenate was prepared in HEB^(*) buffer (pH 7.4 EDTA/HEPES^(**)) containing a mixture of enzyme inhibitors (Leupeptin, Pepstatin, Aprotinin, BHA).
(§3) The evaluation parameters were: • BrW/BWi: ratio between final brain weight and initial body weight (day 0); • Prot. Hmg: total proteins in the homogenate (BCA method, i.e. bicinchoninic acid); • Prot. Ox: oxidized proteins in the Hmg by means of a colorimetric method using dinitrophenylhydrazone (DNPH); • GSH: reduced glutathione in the supernatant (sn) of the Hmg, obtained after precipitation with metaphosphoric acid (MPA), by means of a colorimetric method using dithiodinitrobenzene (DTNB); • CAT: catalase in the Hmg by a colorimetric method using potassium dichromate; • SOD: superoxide dismutase by a colorimetric method using SOD Reagent (xanthine, EDTA, nitroblue tetrazole, Na2CO3, BSA, i.e. bovine serum albumin); • GST: glutathione S-transferase in the supernatant by a colorimetric method using chlorodinitrobenzene (CDNB) and GSH; and • GPx: glutathione peroxidase in the supernatant after addition of GSH and t-BuOOH, heating and precipitation with MPA; followed by GSH method with DTNB. The assay was performed on the compounds (1)-(5) and (7)-(11) and on edaravone (E), as comparative compound.
The mean effect (n=5 experiments) of doxorubicin (D), i.e. "oxidized" animal, relative to the vehicle (V), the vehicle representing the healthy animal.
All the parameters, with the exclusion of Brain/BWi and Prot. Hmg, were normalized for total Hmg proteins. The D value standard deviations and the % incidence relative to V are given in italics.
The effect of the tested compounds on the "oxidized" animals was given as % inhibition relative to the percentage change due to doxorubicin alone. The effect of the compounds on the oxidized animals can be expressed both as a function of the values of the vehicle (healthy, vehicle only) and as a function of the value of its own (healthy, compound only): • Vehicle: percentage [(Compound+D)/V]x100/[(V+D)/V]x100 • Its own: percentage [(Compound+D)/Compound]x100/[(V+D)/V]x100
Again in this case, the mean % effect relative to doxorubicin alone could be given for all the parameters simultaneously, as an approximate index of effectiveness on the cerebral oxidative state of the animal.

healthy animals = test: Effect of the compounds on healthy animals (same in vivo assay, cerebral oxidative parameters); design: species or system mice; conditions: healthy mice; for Average % variation with respect to the vehicle: 50 mg/kg IP for three consecutive days, mean over all parameters, D = doxorubicin alone; for CAT/pr / GPX/pr / GSH/pr / GST/pr / Prot. Hmg / Prot. Ox/pr / SOD/pr / Brain/BWi: 50 mg/kg IP x3 days, percentage change relative to the vehicle
Protocol: as §1, §2, §3
The mean % effect, on all the parameters simultaneously, of the triple treatment in healthy animal, as mean percentage change relative to the vehicle. This value is useful as an approximate safety index of the oxidative state of the brain, i.e. the capacity of the compounds of the invention not to alter cerebral homeostasis in healthy animals.

[4] = Acid dissociation constants (pKa) by titration; assay type: physicochemical; conditions: pH at semi-neutralization point of titration with 0.1 N NaOH or HCl
Protocol: The following equipment was used during the implementation of all the examples: • for melting point determination a Buchi B-540 instrument was used; • the pKa is the pH at the semi-neutralization point of titration using a Mettler Toledo DL-50 instrument with a 0.1 N NaOH or HC! solution; • the ^1H-NMR spectra were recorded at 300 MHz and the ^13C-NMR spectra were recorded at 75 MHz using a Varian Unity 300 instrument; • spectrophotometric measurements were carried out using a Lambda Perkin Elmer 15 UV/Vis spectrophotometer for the DPPH assay and a Wallac Victor 1420 multilabel counter spectrophotometer.

[5] = Brain-to-plasma concentration ratio in mice; assay type: in vivo, Female CD-1 mice; conditions: female, CD-1, mouse, ip, 25 mg/kg intraperitoneal, area under the curve of brain and plasma concentrations 0 to 60 minutes, read-out: B/P ratio
Protocol: The ability of the compounds of the invention to penetrate the brain was investigated by measuring their brain/plasma (B/P) ratio in mice following intraperitoneal administration.
Female CD-1 mice were used (n=3 for each time period) and received the compounds of the invention by intraperitoneal administration, in 25 mg/kg doses in a 0.5% NaHCO3 buffer (pH 8.3). At predefined intervals following said administration, i.e. 5, 15, 30 and 60 minutes, the mice were killed and both plasma and total brain tissue were collected.
Specifically, after anaesthesia with ether, the animals were bled by blood withdrawal from the abdominal aorta then immediately decapitated. The blood samples were collected into plasma separator tubes containing Li-Heparin as anticoagulant and centrifuged. The resulting plasma was then stored at -20 °C. The brain was rapidly removed from the cranium and weighed, subsequently frozen and stored at -20 °C before treatment by homogenization and HPLC analysis.
The plasma was thawed and mixed with an equal volume of the extraction solution.
1 ml of solution was then extracted by adding 20 µl of 70% HClO4, then centrifuged at 15,500g for 5 minutes and injected into the HPLC.
Each brain was thawed and homogenized with the extraction solution to provide a final composition of 4 ml/1g of tissue by means of an Ultra-Turrax blender and sonicated for 5 minutes. After centrifugation of the homogenate at 15,500g for 5 minutes, the resulting solution was treated with HClO4, as indicated for the plasma. Specific chromatographic conditions had been developed for each analyte, the calibration curve being constructed for plasma and brain homogenate.

pKa1 [4]: 3.21
pKa2 [4]: 6.85
Average % variation with respect to the vehicle (healthy animals; listed as V+(2), 50 mg/kg): 3.6%
Brain/BWi (healthy animals): 7.6%
CAT/pr (healthy animals): -2.9%
GPX/pr (healthy animals): 6.6%
GSH/pr (healthy animals): 6.1%
GST/pr (healthy animals): 5.8%
Prot. Hmg (healthy animals): -2.2%
Prot. Ox/pr (healthy animals): -3.7%
SOD/pr (healthy animals): -0.2%
Kp [5]: > 0.1
SMILES: CC1(C)CCN(O)C(C2C(=O)CC(c3ccccc3)CC2=O)C1 (centres unmarked) [(2), 2-(1-hydroxy-4,4-dimethylpiperidin-2-yl)-5-phenylcyclohexane-1,3-dione]
TEAC [2]: 0.6
Average % variation with respect to the vehicle (healthy animals; 50 mg/kg): did not significantly alter the parameters

pKa1 [4]: 2.85
pKa2 [4]: 5.71
Average % variation with respect to the vehicle (healthy animals): -9.9%
SMILES: Cc1cc(O)c(C2COCCN2O)c(=O)o1 (centres unmarked) [(9), 4-hydroxy-3-(4-hydroxymorpholin-3-yl)-6-methyl-2H-pyran-2-one]
TEAC [2]: 1.2

Second part, the compound before the results:

SMILES: Cc1c(C)c2c(c(C)c1O)CCC(C)(C(=O)O)O2 (centres unmarked) [Trolox, reference compound]
Inhibition of CHP-induced fluorescence [1]: 10-50%

SMILES: O=C1O[C@H]([C@@H](O)CO)C(O)=C1O [vitamin C, reference compound]
TEAC [2]: 0.9

SMILES: COc1cccc2c1C(=O)c1c(O)c3c(c(O)c1C2=O)C[C@@](O)(C(=O)CO)C[C@@H]3O[C@H]1C[C@H](N)[C@H](O)[C@H](C)O1 [doxorubicin, reference compound]
%D Brain/BWi [3]: 93.1%
%D CAT [3]: 86.8%
%D GPX [3]: 90.1%
%D GSH [3]: 87.5%
%D GST [3]: 90.9%
%D Prot. Hmg [3]: 108.3%
%D Prot. Ox [3]: 117.2%
%D SOD [3]: 85.7%
Average % variation with respect to the vehicle (healthy animals): -11.4%
CAT/pr (healthy animals): -13.2%
GPX/pr (healthy animals): -9.9%
GSH/pr (healthy animals): -12.5%
GST/pr (healthy animals): -9.1%
Prot. Hmg (healthy animals): 8.3%
Prot. Ox/pr (healthy animals): 17.2%
SOD/pr (healthy animals): -14.3%
Brain/BWi (healthy animals; 50 mg/kg): 6.9%
Brain/BWi (healthy animals; listed as D, 50 mg/kg): -6.9%

SMILES: CC1(C)CC(=O)C(C2CC(C)(C)CCN2O)C(=O)C1 (centres unmarked) [(1), 2-(1-hydroxy-4,4-dimethylpiperidin-2-yl)-5,5-dimethylcyclohexane-1,3-dione]
pKa1 [4]: 3.35
pKa2 [4]: 6.83
TEAC [2]: 1.0
Average % variation with respect to the vehicle (healthy animals): -7.0%
Kp [5]: > 0.1
Inhibition of CHP-induced fluorescence [1]: effective

SMILES: O=C1CCCC(=O)C1C1COCCN1O (centres unmarked) [(6), 2-(4-hydroxymorpholin-3-yl)-cyclohexane-1,3-dione]
pKa1 [4]: 3.00
pKa2 [4]: 6.39
TEAC [2]: 1.1
